Experimental data: paper PMC6768028, “Synthesis, SAR and in vitro therapeutic potentials of thiazolidine-2,4-diones” (Chemistry Central Journal, 2018)
Converted amounts (≈) assume the structure as drawn.

How the values were obtained:
Bacillus subtilis = assay: Antimicrobial activity, tube dilution method (MIC); format: cell-based; conditions: 24 h, read-out: Minimum inhibitory concentration, B. subtilis, tube dilution, 37 ± 1 °C, 24 h
Protocol: (§1) The in vitro antimicrobial activity of synthesized compounds was done by tube dilution method against Gram-positive bacteria: Staphylococcus aureus, Bacillus subtilis, Gram-negative bacteria: Escherichia coli, Klebsiella pneumonia, Salmonella typhi and fungal: Candida albicans and Aspergillus niger strains using cefadroxil and fluconazole as standard. Dilutions of test and standard compounds were prepared in double strength nutrient broth for bacterial strains and Sabouraud dextrose broth for fungal strains.

Escherichia coli = assay: Antimicrobial activity, tube dilution method (MIC); format: cell-based; conditions: 24 h, read-out: Minimum inhibitory concentration, E. coli, tube dilution, 37 ± 1 °C, 24 h
Protocol: as §1

Klebsiella pneumonia = assay: Antimicrobial activity, tube dilution method (MIC); format: cell-based; conditions: Klebsiella pneumoniae, 24 h, read-out: Minimum inhibitory concentration, K. pneumonia, tube dilution, 37 ± 1 °C, 24 h
Protocol: as §1

Salmonella typhi = assay: Antimicrobial activity, tube dilution method (MIC); format: cell-based; conditions: Salmonella enterica, TYPHI, 24 h, read-out: Minimum inhibitory concentration, S. typhi
Protocol: as §1

Staphylococcus aureus = assay: Antimicrobial activity, tube dilution method (MIC); format: cell-based; conditions: 24 h, read-out: Minimum inhibitory concentration, S. aureus, tube dilution, 37 ± 1 °C, 24 h
Protocol: as §1

Aspergillus niger = assay: Antifungal activity, tube dilution method (MIC); format: cell-based; conditions: 168 h, read-out: Minimum inhibitory concentration, A. niger, tube dilution, 25 ± 1 °C, 7 days
Protocol: as §1

Candida albicans = assay: Antifungal activity, tube dilution method (MIC); format: cell-based; conditions: 48 h, read-out: Minimum inhibitory concentration, C. albicans, tube dilution, 37 ± 1 °C, 48 h
Protocol: as §1

[1] = test system: α-amylase enzyme (diastase); assay: Antidiabetic activity: α-amylase inhibitory activity using diastase, colorimetric method; format: biochemical; conditions: for IC50 (antidiabetic activity, α-amylase): calculated via graph of % inhibition
Protocol: All the synthesized compounds were evaluated against α-amylase inhibitory activity by using diastase based on colorimetric method. 0.25 g of soluble potato starch was dissolved in 50 ml of 20 mM phosphate buffer by heating for 15 min. 1 mg diastase (amylase enzyme) was mixed in 100 ml of 20 mM phosphate buffer (pH 6.9) to obtain the enzyme solution. Different concentrations of all the synthesized derivatives were prepared by dissolving them in DMSO. […] 1 ml of enzyme solution was mixed with 1 ml of each synthesized derivatives and incubated for 10 min at 25 °C. Then 1 ml of this mixture was mixed with 1 ml of soluble potato starch solution in a tube and incubated for 10 min at 25 °C. Then tubes were closed after adding 1 ml of color reagent and placed into water bath for 15 min at 85 °C. The reaction mixture was removed from water bath after 15 min. After cooling, the reaction mixture was diluted with 9 ml of distilled water and the absorbance was taken at 540 nm in UV spectrophotometer. Blank solution was prepared by replacing the enzyme solution with buffer solution and absorbance was taken. Measurement of control was performed in identical manner by replacing the synthesized derivatives in 1 ml of DMSO.
Percentage inhibition of α-amylase enzyme was calculated by using following formula:1 %Inhibition=ABlank-ASample/ABlank×100

[2] = Antioxidant activity: free radical scavenging method by DPPH assay; conditions: for % inhibition (DPPH), 25 μg/ml / % inhibition (DPPH), 50 μg/ml / % inhibition (DPPH), 75 μg/ml / % inhibition (DPPH), 100 μg/ml: 30 min, 517 nm; for IC50 (antioxidant activity, DPPH): calculated via graph of % inhibition
Protocol: The antioxidant activity of the newly synthesized compounds were evaluated spectrophotometrically using free radical scavenging method by DPPH (2,2-diphenyl-1-picrylhydrazyl) assay. The DPPH is a stable free radical with maximal absorption at 517 nm and is reduced to a corresponding hydrazine when it reacting with hydrogen donors. […] DPPH solution (3 μg/ml) was prepared in methanol and DPPH (in 1:1) solution was used for blank reference. Four dilutions of different concentrations (25, 50, 75 and 100 μg/ml) of each synthesized compound and standard (ascorbic acid) were prepared in the methanol and 1 ml of each concentration was added to 1 ml of DPPH solution. The solution mixture was shaken vigorously and kept in dark place for 30 min at room temperature and absorbance was measured by UV at 517 nm. Percentage inhibition of Free radical DPPH was calculated as follows:1 %Inhibition=ABlank-ASample/ABlank×100 where, ABlank: absorbance of the blank reaction, ASample: absorbance of the test compound.

Row | Structure (SMILES) | MIC (Bacillus subtilis) [mM] | MIC (Escherichia coli) [mM] | MIC (Klebsiella pneumonia) [mM] | MIC (Salmonella typhi) [mM] | MIC (Staphylococcus aureus) [mM] | MIC (Aspergillus niger) [mM] | MIC (Candida albicans) [mM] | % inhibition (α-amylase), 25 μg/ml [1] [%] | % inhibition (α-amylase), 50 μg/ml [1] [%] | % inhibition (α-amylase), 75 μg/ml [1] [%] | % inhibition (α-amylase), 100 μg/ml [1] [%] | IC50 (antidiabetic activity, α-amylase) [1] [µg/mL] | % inhibition (DPPH), 25 μg/ml [2] [%] | % inhibition (DPPH), 50 μg/ml [2] [%] | % inhibition (DPPH), 75 μg/ml [2] [%] | % inhibition (DPPH), 100 μg/ml [2] [%] | IC50 (antioxidant activity, DPPH) [2] [µg/mL] | melting point [°C]
1 | O=C1NC(=O)C(=Cc2cccc([N+](=O)[O-])c2)S1 [Compound 7, 5-(3-Nitrobenzylidene)thiazolidine-2,4-dione] | 9.9 (≈ 2480 µg/mL) | 4.99 (≈ 1250 µg/mL) | 4.99 (≈ 1250 µg/mL) | 4.99 (≈ 1250 µg/mL) | 4.99 (≈ 1250 µg/mL) | 9.9 (≈ 2480 µg/mL) | 4.99 (≈ 1250 µg/mL) | 24.72 | 35.71 | 64.87 | 97.15 | 56.09 (≈ 224 µM) | 20.51 | 35.61 | 79.74 | 86.04 | 55.23 (≈ 221 µM) | 110 to 113
2 | O=C1NC(=O)C(=Cc2ccc(Br)cc2)S1 [Compound 9, 5-(4-Bromobenzylidene)thiazolidine-2,4-dione] | 8.79 (≈ 2500 µg/mL) | 8.79 (≈ 2500 µg/mL) | 8.79 (≈ 2500 µg/mL) | 4.3 (≈ 1220 µg/mL) | 4.3 (≈ 1220 µg/mL) | 4.3 (≈ 1220 µg/mL) | 4.3 (≈ 1220 µg/mL) | 24.73 | 53.78 | 68.34 | 89.37 | 41.67 (≈ 147 µM) | 36.83 | 45.41 | 71.51 | 87.34 | 27.66 (≈ 97.3 µM) | 150 to 152
3 | CN(C)c1ccc(C=C2SC(=O)NC2=O)cc1 [Compound 6, 5-(4-(Dimethylamino)benzylidene)thiazolidine-2,4-dione] | 5 (≈ 1240 µg/mL) | 4.99 (≈ 1240 µg/mL) | 10.1 (≈ 2500 µg/mL) | 5 (≈ 1240 µg/mL) | 5 (≈ 1240 µg/mL) | 10.1 (≈ 2500 µg/mL) | 20.1 (≈ 4990 µg/mL) | 33.56 | 49.45 | 50.78 | 97.15 | 37.35 (≈ 150 µM) | 19.54 | 38.93 | 62.65 | 75.82 | 48.13 (≈ 194 µM) | 147 to 150
4 | COc1cccc(C=C2SC(=O)NC2=O)c1 [Compound 16, 5-(3-Methoxybenzylidene)thiazolidine-2,4-dione] | 5.31 (≈ 1250 µg/mL) | 5.31 (≈ 1250 µg/mL) | 10.6 (≈ 2490 µg/mL) | 5.31 (≈ 1250 µg/mL) | 5.31 (≈ 1250 µg/mL) | 5.31 (≈ 1250 µg/mL) | 5.31 (≈ 1250 µg/mL) | 27.52 | 43.73 | 57.27 | 85.23 | 40.92 (≈ 174 µM) | 30.65 | 43.62 | 79.11 | 87.97 | 39.77 (≈ 169 µM) | 217 to 220
5 | CCN(CC)c1ccc(/C=C2/SC(=O)NC2=O)cc1 [Compound 8] | 4.5 (≈ 1240 µg/mL) | 5 (≈ 1380 µg/mL) | 4.5 (≈ 1240 µg/mL) | 4.5 (≈ 1240 µg/mL) | 4.5 (≈ 1240 µg/mL) | 4.5 (≈ 1240 µg/mL) | 4.5 (≈ 1240 µg/mL) | 20.79 | 39.54 | 40.89 | 93.17 | 56.89 (≈ 206 µM) | 26.93 | 33.78 | 62.23 | 65.78 | 31.15 (≈ 113 µM) | 158 to 160
6 | O=Cc1ccc(C=C2SC(=O)NC2=O)cc1 [Compound 21, 4-((2,4-Dioxothiazolidin-5-ylidene)methyl)benzaldehyde] | 5.3 (≈ 1240 µg/mL) | 5.3 (≈ 1240 µg/mL) | 10.7 (≈ 2500 µg/mL) | 5.3 (≈ 1240 µg/mL) | 5.3 (≈ 1240 µg/mL) | 5.3 (≈ 1240 µg/mL) | 5.3 (≈ 1240 µg/mL) | 21.98 | 47.28 | 70.56 | 74.76 | 38.65 (≈ 166 µM) | 17.91 | 41.64 | 75.98 | 92.32 | 55.51 (≈ 238 µM) | 147 to 150
